Like-named read-outs stand apart in the source and are kept apart here.
Experiments:
[1] = Brain pharmacokinetics and brain to plasma ratio after IV co-administration of DMT and DMT-d10 to male rats (Group 4); type: in vivo, Sprague Dawley rats; conditions: for Cmax / Tmax / half-life / Kp: Sprague Dawley, rat; for Cmax / Tmax / AUC0-inf / AUC(0-t) / half-life: brain; for Cmax / Tmax / AUC0-inf / AUC(0-t): Group 4 IV bolus 1 mg/kg, male rats; for Distribution into brain: after IV co-administration; for half-life / Kp: male, 1 mg/kg; for half-life: Group 4 IV, calculated 0.25 to 1 hr; for Kp: brain / plasma, intravenous, read-out: B/P (AUC0-1), brain to plasma ratio
Protocol: The pharmacokinetics and bioavailability of N,N-dimethyltryptamine (DMT) and 2-(1H-indol-3-yl)-N,N-bis(methyl-d3)ethan-1-amine-1,1,2,2-d4 (DMT-d10) were investigated in rats following intravenous (bolus), oral gavage (OG), and inhalation after co-dose administration.
Sampling collection. PK samples (0.3 mL) were collected from the jugular vein by venepuncture into tubes containing K2EDTA anticoagulant at the following sampling times: Group 1 (IV) and Group 2 (oral) serial plasma collection at 0.083, 0.25, 0.5, 1, 3, 8 and 24 hr postdose; Group 4 (IV) composite plasma and brain collection at 0.083, 0.25, 0.5 and […]; Group 6 (inhalation) serial plasma collection at 0.333, 0.533, 0.833, 1.333, 3.333, 8.333 and 24.333 after start of inhalation.
Brain samples: After extraction of whole brain from the cranium, brains were rinsed, patted dry, weighed, placed into tubes and frozen on dry ice. Thereafter, they were stored at −70 (10°) C pending analysis.
Bioanalysis. Plasma and brain homogenates were analyzed for DMT and DMT-d10 using an established LC-MS/MS assay.) Pharmacokinetic parameters were determined from the DMT and DMT-d10 plasma and brain concentration-time profiles using commercially available software (Phoenix® WinNonlin®).

[2] = Experiment 6: blood neurotrophic and endocrine biomarkers after DMT+N2O in healthy human participants; conditions: DMT 0.1, 0.2, 0.4 mg/kg
Source text: General experimental design. The proposed studies aim to define proof-of-concept synergistic interactions of inhalational DMT fumarate with N2O, or IV DMT fumarate administered as a bolus over 30 seconds. Healthy adult participants will be exposed to either inhalational DMT in 20-25% N2O in oxygen as the carrier gas, or inhalational DMT in oxygen alone as the carrier gas in a blinded manner, or IV DMT while inhaling 20-25% N2O in oxygen, or oxygen.
Pre-study: Baseline measurements of heart rate, body temperature and blood pressure will be made. An IV cannula will be inserted into a forearm vein for blood sampling and to allow administration of DMT as a bolus in the IV condition. Participants will be allowed to relax for 30 min before the drug session. Study session: Participants will receive administration of either 20-25% N2O in oxygen, or oxygen alone, for 10 minutes prior to the administration of a high, medium or low dose of inhalational or IV DMT (0.4, 0.2, 0.1 mg/kg) over the course of 30 sec-1 minute. […]
Baseline blood samples will be drawn 30 minutes before N2O or oxygen administration, and after 8 mins of N2O or oxygen administration for endocrine markers of HPA axis activation: corticotropin, β-endorphin, prolactin, GH and cortisol levels. Further blood samples will be drawn, and vital signs measured 2, 15, 60 and 120 minutes after DMT administration. […]

[3] = biological target: T1, serotonin 5-HT2A receptor (Mus musculus, UniProt P35363); conditions: 1 mg/kg dose, intraperitoneal, rats and mice; cited from earlier work
T1 construct: endogenous in cells; host or cells: living mice (in vivo behavioural assay); receptor endogenous to the animal

[4] = Plasma pharmacokinetics of co-administered DMT and DMT-d10 by intravenous (bolus), oral gavage and inhalation administration to male rats; conditions: for time of peak plasma concentration postdose: after oral administration; for mean residence time (MRT) after inhalation compared to IV administration: inhalation vs IV; for F: calculated from dose normalized AUC0-1 mean values vs Group 4 IV; for bioavailability / Tmax / half-life / AUC(0-t) / AUC0-inf / Cmax / MRT last / AUC0-1/dose / t1/2: plasma
[5] = cited from earlier work
[6] = rats, following intraperitoneal injection; cited from earlier work
[7] = inhalation, DMT 15.3 mg/kg, DMT-d10 14.7 mg/kg
[8] = male, Sprague Dawley, rat, inhaled
[9] = male, Sprague Dawley, rat, inhaled or intranasal
[10] = male, Sprague Dawley, rat, inhaled or intranasal, AUC0-1, plasma, Group 6 inhalation, DMT 15.3 mg/kg, DMT-d10 14.7 mg/kg
[11] = male, Sprague Dawley, rat, inhaled or intranasal, AUC0-1, plasma, inhalation, DMT 15.3 mg/kg, DMT-d10 14.7 mg/kg (summary table)
[12] = male, Sprague Dawley, rat, inhaled or intranasal, AUC0-t, Group 6 inhalation, DMT 15.3 mg/kg, DMT-d10 14.7 mg/kg
[13] = male, Sprague Dawley, rat, iv, 1 mg/kg
[14] = male, Sprague Dawley, rat, iv, 1 mg/kg, AUC0-1, plasma, 1 mg/kg (summary table)
[15] = male, Sprague Dawley, rat, iv, 1 mg/kg, AUC0-1, plasma, Group 4 IV bolus, 1 mg/kg, male rats
[16] = male, Sprague Dawley, rat, iv, 1 mg/kg, AUC0-t, Group 4 IV bolus, 1 mg/kg, male rats
[17] = male, Sprague Dawley, rat, po, 10 mg/kg
[18] = male, Sprague Dawley, rat, po, 10 mg/kg, AUC0-1, plasma, 10 mg/kg (summary table)
[19] = male, Sprague Dawley, rat, po, 10 mg/kg, AUC0-1, plasma, Group 2 oral gavage (OG), 10 mg/kg, male rats
[20] = male, Sprague Dawley, rat, po, 10 mg/kg, AUC0-t, Group 2 oral gavage (OG), 10 mg/kg, male rats
[21] = inhalation, calculated 0.333 to 3.333 hr (summary table)
[22] = intravenous 1 mg/kg, calculated 0.083 to 1.0 hr (summary table)
[23] = human, IV bolus of DMT (as fumarate salt), 0.05-0.4 mg/kg

T1 sequence (P35363 whole entry): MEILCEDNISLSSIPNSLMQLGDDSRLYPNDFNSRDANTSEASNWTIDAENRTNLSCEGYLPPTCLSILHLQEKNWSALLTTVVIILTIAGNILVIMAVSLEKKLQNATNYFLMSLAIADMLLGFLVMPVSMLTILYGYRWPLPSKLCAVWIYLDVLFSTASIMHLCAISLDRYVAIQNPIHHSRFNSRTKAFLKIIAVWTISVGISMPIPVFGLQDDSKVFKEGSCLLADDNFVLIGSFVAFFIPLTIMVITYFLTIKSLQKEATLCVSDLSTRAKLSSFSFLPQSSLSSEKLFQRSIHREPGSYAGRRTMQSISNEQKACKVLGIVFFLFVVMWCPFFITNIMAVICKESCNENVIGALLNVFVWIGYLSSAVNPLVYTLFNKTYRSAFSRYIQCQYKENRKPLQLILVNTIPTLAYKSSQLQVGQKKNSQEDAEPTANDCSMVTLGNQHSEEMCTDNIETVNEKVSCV

Q: What does the source list for `CN(C)CCc1c[nH]c2ccccc12` [DMT, N,N-dimethyltryptamine]?
A: Cmax [1]: 3430 ng/g; Tmax [1]: 5 min; Distribution into brain [1]: high; AUC0-inf [1]: 1070 ng·h/g; AUC(0-t) [1]: 1060 ng·h/g; half-life [1]: 9.3 min; Kp [1]: 9; levels of VEGF and BDNF in blood [2]: dose-dependently increased levels; hallucinogenic effect as measured by head-twitch responses (HTRs) [3]: sub-hallucinogenic; time of highest plasma concentration (first time point taken) ([4]; after IV bolus): 0.083 h; time of highest plasma concentration (first time point taken) ([4]; after inhalation): 0.333 h; time of peak plasma concentration postdose [4]: 1 h; mean residence time (MRT) after inhalation compared to IV administration [4]: approximately 2 ×; F [4, 7]: 15.3%; bioavailability [4, 8]: 15.3%; Tmax [4, 9]: 20 min; half-life [4, 9]: 19.7 min; AUC(0-t) [4, 10]: 265 ng·h/mL; AUC(0-t) [4, 11]: 265 ng·h/mL; AUC(0-t) [4, 12]: 300 ng·h/mL; AUC0-inf [4, 13]: 115 ng·h/mL; Cmax [4, 13]: 314 ng/mL; MRT last [4, 13]: 13.6 min; half-life [4, 13]: 10.1 min; AUC(0-t) [4, 14]: 113 ng·h/mL; AUC(0-t) [4, 15]: 113 ng·h/mL; AUC(0-t) [4, 16]: 113 ng·h/mL; Cmax [4, 17]: 28 ng/mL; MRT last [4, 17]: 172 min; Tmax [4, 17]: 60 min; bioavailability [4, 17]: 1.2%; AUC(0-t) [4, 18]: 13.7 ng·h/mL; AUC(0-t) [4, 19]: 13.7 ng·h/mL; AUC(0-t) [4, 20]: 65 ng·h/mL; F ([4]; oral gavage 10 mg/kg): 1.2%; AUC0-1/dose [4, 7]: 17.3; t1/2 [4, 21]: 19.7 min; t1/2 [4, 22]: 10.1 min; AUC0-1/dose ([4]; intravenous, 1 mg/kg): 113; AUC0-1/dose ([4]; oral, 10 mg/kg): 1.37; half-life ([5]; administered intravenously): around 15 minutes; time to peak plasma concentrations ([5]; administered intravenously): approximately 2 minutes; subjective effects ([5]; human, 0.1 mg/kg IV): not hallucinogenic; subjective effects ([5]; human, 0.2 and 0.4 mg/kg IV): nearly instantaneous onset of visual hallucinatory phenomena, bodily dissociation, and extreme shifts in mood; peak of psycho-biological effects after administration [5, 23]: 120 seconds; time by which psycho-biological effects resolve [5, 23]: ≤ 30 minutes; duration of effect ([5]; vaporized DMT): less than 30 min; half-life [6]: 5 to 15 min; time to be metabolized and cleared from brain, liver, and plasma [6]: ≤ 1 h

Q: What does the source list for `[2H]C([2H])([2H])N(C([2H])([2H])[2H])C([2H])([2H])C([2H])([2H])c1c[nH]c2ccccc12` [DMT-d10, 2-(1H-indol-3-yl)-N,N-bis(methyl-d3)ethan-1-amine-1,1,2,2-d4]?
A: improvement of brain to plasma (B/P) ratio by deuteration ([1]; DMT-d10 vs. DMT, IV): approximately 50%; Cmax [1]: 1490 ng/g; Tmax [1]: 5 min; Distribution into brain [1]: high; AUC0-inf [1]: 1290 ng·h/g; AUC(0-t) [1]: 931 ng·h/g; half-life [1]: 33.9 min; Kp [1]: 14; increase of inhalation bioavailability by deuteration ([4]; DMT-d10 vs. DMT): approximately 60%; time of highest plasma concentration (first time point taken) ([4]; after IV bolus): 0.083 h; time of highest plasma concentration (first time point taken) ([4]; after inhalation): 0.333 h; time of peak plasma concentration postdose [4]: 1 h; mean residence time (MRT) after inhalation compared to IV administration [4]: approximately 2 ×; F [4, 7]: 24.3%; bioavailability [4, 8]: 24.3%; Tmax [4, 9]: 20 min; half-life [4, 9]: 23.7 min; AUC(0-t) [4, 10]: 267 ng·h/mL; AUC(0-t) [4, 11]: 267 ng·h/mL; AUC(0-t) [4, 12]: 361 ng·h/mL; AUC0-inf [4, 13]: 92.6 ng·h/mL; Cmax [4, 13]: 148 ng/mL; MRT last [4, 13]: 20.9 min; half-life [4, 13]: 26.5 min; AUC(0-t) [4, 14]: 74.6 ng·h/mL; AUC(0-t) [4, 15]: 74.6 ng·h/mL; AUC(0-t) [4, 16]: 74.6 ng·h/mL; Cmax [4, 17]: 20.8 ng/mL; MRT last [4, 17]: 221 min; Tmax [4, 17]: 60 min; bioavailability [4, 17]: 1.2%; AUC(0-t) [4, 18]: 8.78 ng·h/mL; AUC(0-t) [4, 19]: 8.78 ng·h/mL; AUC(0-t) [4, 20]: 77.2 ng·h/mL; F ([4]; oral gavage 10 mg/kg): 1.2%; Cmax ([4]; Group 4 IV bolus, 1 mg/kg, male rats): 148 ng/mL; AUC0-1/dose [4, 7]: 18.2; t1/2 [4, 21]: 23.7 min; t1/2 [4, 22]: 26.5 min; AUC0-1/dose ([4]; intravenous, 1 mg/kg): 74.6; AUC0-1/dose ([4]; oral, 10 mg/kg): 0.878
